In patent US9751875B2, “Quinine compounds, and optical isomers, preparation method and medical use thereof” (BEIJING FSWELCOME TECHNOLOGY DEVELOPMENT CO., LTD., priority 2013, dated 2017):
Where two headings read alike, the source gives them in different places.

Assays:
[1] = test system: tracheal smooth muscle from guinea pigs (contraction induced by 3 × 10^−6 mol/L of CCh); assay: Antagonism in vitro of contraction of isolated tracheal smooth muscle from guinea pigs induced by carbachol (CCh); format: cell-based, guinea pig; conditions: cumulative dosing
Description: Preparation of the Isolated Tracheal Smooth Muscle Specimen from a Guinea Pig:
After a guinea pig was narcotized with urethane, the trachea between the throat and carina of the guinea pig was taken out rapidly, and placed in the Krebs-Henseleit (K-H) solution (composition (g/L): NaCl 6.92, KCl 0.35, CaCl2 0.28, KH2PO4 0.16, MgSO4.7H2O 0.4568, NaHCO3 2.1, Glucose 2.0) with a mixture gas of 5% CO2 and 95% O2 purged. After loose connective tissues and fats around the trachea were separated, the trachea was cut into trachea pieces having a width of about 3 mm and a length of 20 mm by a surgical scissor, with both ends of the trachea piece ligated with 4˜0 silk suture, and then placed into a thermostatic bath containing 5 ml of K—H solution (pH 7.4) at 37° C., with the mixture gas of 5% CO2 and 95% O2 continuously purged. A muscle tension transducer was connected to the upper end so as to apply 1.0 g of resting tension to the specimen, the change of the tension was recorded, the culture solution was replaced every 20 min, and the test was started after being balanced for 60 min.
Administration method: After the trachea piece was stabilized, 3×10^−6 mol/L of CCh was added into a bath, and after the contractile tension of the trachea piece reached a peak level, the example compounds, ipratropium bromide and tiotropium bromide were added into a Magnus bath by a cumulative dosing regimen with a dosage of 10^−9˜10^−5 mol, respectively, and the diastolic condition of the trachea piece was observed: if no response occurred (below the threshold concentration), a next dosage was continued to be added in sequence; if response occurred, after it reached a diastolic plateau, a next dosage was further added. The above operation was repeated until the contractile curve reached the minimum value. Finally, 10^−6 mol/L of isoprenaline was added so that the maximum relaxation would be reached and the curve was recorded.
Statistical approach: The result was expressed as mean ±standard deviation, and counted by Sigma Stat statistical package. The data was analyzed by using variance analysis, the comparison among means of a plurality of specimen was performed by using Student-Newman-Keuls(SNK) test; statistical significant level α=0.05 (bilateral).
Compounds shown in Table 5 were further prepared according to the present invention, and their IC50 […] of resistance to the contraction of tracheal smooth muscle from guinea pigs induced by a concentration of 3×10^−6 mol/L of CCh was determined.

[2] = test system: bronchus in guinea pigs (contractile response induced by Mch); assay: Antagonism of contractile response of bronchus in guinea pigs induced by methacholine (Mch); airway resistance and pulmonary dynamic compliance; format: in vivo, guinea pig; conditions: Mch 10 μg/kg iv after 30 min; for Cdyn(ml/cm H2O) / Raw (cm H2O/ml/s): Mean ± S.E.M
Description: Determination of tidal volume, airway flow rate, and transpulmonary pressure: 1.5 g/kg of urethane was intraperitoneally injected to narcotize the guinea pig. The guinea pig was fixed supinely and treated with tracheal intubation, and the external jugular vein was separated and an indwelling needle was inserted; the guinea pig was enclosed into a body plethysmograph, a blunt needle for intubation into thoracic cavity was inserted between ribs 4˜5 of the prothorax of the guinea pig, and the intrathoracic pressure could be measured (with a negative value of a water column of a water manometer and a fluctuation with the breath of the guinea pig as marks). After stabilization, the values of the tidal volume, airway flow rate and transpulmonary pressure of the guinea pig prior to administration of Mch were recorded by a MedLab biological signal collection and processing system as base values. 10 μg/kg body weight of Mch was intravenously injected. The changes of the airway flow rate, tidal volume and transpulmonary pressure of the guinea pig within 5 minutes were observed. Calculation of Raw and Cdyn: the changes of the increased percentage of Raw value and the decreased percentage of Cdyn after […] of Mch were calculated.
Calculation formulas of Raw and Cdyn were respectively: […]
Dose-effect relationship: For each of the example compounds, 27 guinea pigs were randomly divided into […]: a solvent control group with […], a group with 1 μg/kg of the example compounds 4, 10, 14, and 26, a group with 3 μg/kg of the example compounds 4, 10, 14, and 26 and a group with 10 μg/kg of the example compounds 4, 10, 14, and 26; after 30 min from the dropping of the above concentration of drugs in the airway, 10 μg/kg body weight of Mch was intravenously injected for excitation, and airway resistance (Raw) and pulmonary dynamic compliance (Cdyn) within 5 min were determined. […]

[3] = test system: tracheal smooth muscle from guinea pigs (contraction induced by 3 × 10^−6 mol/L of CCh); assay: Antagonism in vitro of contraction of isolated tracheal smooth muscle from guinea pigs induced by carbachol (CCh); format: cell-based, guinea pig
[4] = test system: m1, m2 and m3 subtypes of M receptor; assay: Competitive [3H]-QNB binding on membranes of CHO cells transfected with m1, m2, m3; selectivity on subtypes of M receptor; conditions: ratio of Ki, n = 6
[5] = read-out: IC50 (μM), antagonism in vitro against the contraction of the tracheal smooth muscle induced by CCh, 3 × 10^−6 mol/L of CCh

## O[C@@](CO[C@@H]1C[N+]2(CCOc3ccccc3)CCC1CC2)(c1ccccc1)C1CCCC1.[Br-] [Example 26, (2R,3R)-3-[(2-cyclopentyl-2-hydroxyl-2-phenyl)ethoxyl]-1-(2-phenoxyethyl)-1-azabicyclo[2,2,2]octane bromide]
[1]; Cavia porcellus, read-out: IC50 (μM), antagonism in vitro against the contraction of the tracheal smooth muscle induced by CCh, 3 × 10^−6 mol/L of CCh
  IC50: 0.0235 µM
[2]; 1 μg/kg dropped in the airway
  inhibition ratio against the decrease of pulmonary dynamic compliance: 11.0%
  inhibition ratio against the increase of airway resistance: 64.4%
  Cdyn(ml/cm H2O): 0.103 ± 0.014 ml/cm H2O
  Raw (cm H2O/ml/s): 0.739 ± 0.085 cm H2O/ml/s
[2]; 3 μg/kg dropped in the airway
  inhibition ratio against the decrease of pulmonary dynamic compliance: 47.1%
  inhibition ratio against the increase of airway resistance: 87.2%
  Cdyn(ml/cm H2O): 0.143 ± 0.016 ml/cm H2O
  Raw (cm H2O/ml/s): 0.531 ± 0.063 cm H2O/ml/s
[2]; 10 μg/kg dropped in the airway
  inhibition ratio against the decrease of pulmonary dynamic compliance: 49.9%
  inhibition ratio against the increase of airway resistance: 92.1%
  Cdyn(ml/cm H2O): 0.205 ± 0.018 ml/cm H2O
  Raw (cm H2O/ml/s): 0.493 ± 0.083 cm H2O/ml/s
[3]
  Onset time: 6.14 min
  Time for eliminating inhibition effect (min): more than 300 min

## C[N+]1(C)CCC(OC(=O)C(c2ccccc2)c2ccccc2)CC1.[I-] [Example 4-DAMP, 4-DAMP, reference compound]
[4]
  Selectivity m1/m2, Mx/My = Ki(y)/Ki(x): 1.66
  Selectivity m1/m3, Mx/My = Ki(y)/Ki(x): 0.095
  Selectivity m2/m3, Mx/My = Ki(y)/Ki(x): 0.058

## OC(CO[C@H]1C[N+]2(CCCOc3ccccc3)CCC1CC2)(c1ccccc1)C1CCC1.[Br-] (stereo partly drawn) [Example 14, (2S,3S)-3-[(2-cyclobutyl-2-hydroxyl-2-phenyl)ethoxyl]-1-(3-phenoxypropyl)-1-azabicyclo[2,2,2]octane bromide]
[1]; [5]
  IC50: 4.87 µM
[4]
  Selectivity m1/m2, Mx/My = Ki(y)/Ki(x): 25.6
  Selectivity m1/m3, Mx/My = Ki(y)/Ki(x): 0.205
  Selectivity m2/m3, Mx/My = Ki(y)/Ki(x): 0.008
[2]; 1 μg/kg dropped in the airway
  inhibition ratio against the decrease of pulmonary dynamic compliance: 11.0%
  inhibition ratio against the increase of airway resistance: 63.5%
  Cdyn(ml/cm H2O): 0.101 ± 0.010 ml/cm H2O
  Raw (cm H2O/ml/s): 0.719 ± 0.082 cm H2O/ml/s
[2]; 3 μg/kg dropped in the airway
  inhibition ratio against the decrease of pulmonary dynamic compliance: 46.1%
  inhibition ratio against the increase of airway resistance: 85.4%
  Cdyn(ml/cm H2O): 0.141 ± 0.014 ml/cm H2O
  Raw (cm H2O/ml/s): 0.560 ± 0.062 cm H2O/ml/s
[2]; 10 μg/kg dropped in the airway
  inhibition ratio against the decrease of pulmonary dynamic compliance: 49.5%
  inhibition ratio against the increase of airway resistance: 90.5%
  Cdyn(ml/cm H2O): 0.207 ± 0.018 ml/cm H2O
  Raw (cm H2O/ml/s): 0.504 ± 0.073 cm H2O/ml/s
[3]
  Onset time: 6.34 min
  Time for eliminating inhibition effect (min): more than 300 min

## CC[N+](CC)(CC)CCOc1cccc(OCC[N+](CC)(CC)CC)c1OCC[N+](CC)(CC)CC [Gallamine, reference compound]
[4]
  Selectivity m1/m2, Mx/My = Ki(y)/Ki(x): 0.011
  Selectivity m1/m3, Mx/My = Ki(y)/Ki(x): 0.676
  Selectivity m2/m3, Mx/My = Ki(y)/Ki(x): 60.26

## OC(CO[C@H]1C[N+]2(CCCOc3ccccc3)CCC1CC2)(c1ccccc1)C1CCCC1.[Br-] (stereo partly drawn) [Example 1, (2R,3S)-3-[(2-cyclopentyl-2-hydroxyl-2-phenyl)ethoxyl]-1-(3-phenoxypropyl)-1-azabicyclo[2,2,2]octane bromide]
[1]; [5]
  IC50: 0.767 µM
[4]
  Selectivity m1/m2, Mx/My = Ki(y)/Ki(x): 34.13
  Selectivity m1/m3, Mx/My = Ki(y)/Ki(x): 0.358
  Selectivity m2/m3, Mx/My = Ki(y)/Ki(x): 0.0105
[3]
  Onset time: 6.89 min
  Time for eliminating inhibition effect (min): more than 300 min
